Each molecule was assayed against T1, Axl (Homo sapiens, UniProt P30530) (assay: Phospho-Akt In-Cell Western Assay (inhibition of Axl activity after Axl-antibody cross-linking)). Details: Hela cells, phospho-Akt chemiluminescence normalized to relative cell number; compounds of formula (Ia), Table 1; read-out: IC50.
T1 construct: endogenous in cells; host or cells: HeLa cells
T1 sequence (P30530 26-894): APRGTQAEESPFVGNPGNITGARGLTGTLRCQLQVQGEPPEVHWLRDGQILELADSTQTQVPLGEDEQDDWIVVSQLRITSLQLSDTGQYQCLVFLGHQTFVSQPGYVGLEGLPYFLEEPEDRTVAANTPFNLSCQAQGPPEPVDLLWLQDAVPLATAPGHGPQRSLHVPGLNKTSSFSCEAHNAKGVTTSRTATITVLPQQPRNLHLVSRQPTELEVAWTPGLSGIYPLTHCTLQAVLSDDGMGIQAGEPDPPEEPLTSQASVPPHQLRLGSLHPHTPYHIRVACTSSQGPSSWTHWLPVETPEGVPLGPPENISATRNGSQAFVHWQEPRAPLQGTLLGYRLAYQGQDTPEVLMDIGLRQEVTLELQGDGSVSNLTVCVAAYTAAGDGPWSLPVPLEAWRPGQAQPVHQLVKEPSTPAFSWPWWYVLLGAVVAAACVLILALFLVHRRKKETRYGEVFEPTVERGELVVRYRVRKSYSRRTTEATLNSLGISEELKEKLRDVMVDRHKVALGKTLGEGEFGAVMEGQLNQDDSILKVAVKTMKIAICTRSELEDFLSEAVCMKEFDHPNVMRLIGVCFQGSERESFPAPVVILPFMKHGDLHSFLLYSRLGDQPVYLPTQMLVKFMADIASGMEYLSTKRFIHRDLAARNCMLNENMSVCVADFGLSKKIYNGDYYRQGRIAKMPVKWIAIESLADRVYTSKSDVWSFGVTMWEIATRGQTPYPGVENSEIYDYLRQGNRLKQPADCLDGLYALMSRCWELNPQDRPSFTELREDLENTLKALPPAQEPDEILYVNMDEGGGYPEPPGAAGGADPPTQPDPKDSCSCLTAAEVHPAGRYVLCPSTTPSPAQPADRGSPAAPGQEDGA
Format: cell-based
Procedure, shortened: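 HeLa cells on poly-L-lysine, starved 24 h in 0.5% FCS DMEM with Axl/Fc 500 ng/mL, pre-treated with compound 1 h at 37 °C, then stimulated 5 min by anti-Axl/anti-mouse antibody cross-linking. Fixed cells probed for phospho-Akt with HRP secondary and chemiluminescent detection.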

Row | Structure (SMILES) | IC50 [nM]
1 | Nc1nc(Nc2cccnc2)nn1-c1cc2c(nn1)-c1ccccc1CCC2 [Compound 93, 1-(6,7-dihydro-5H-benzo[6,7]cyclohepta[1,2-c]pyridazin-3-yl)-N^3-(pyridin-3-yl)-1H-1,2,4-triazole-3,5-diamine] | > 20000
2 | CCCN1CC2CN(c3ccc(Nc4nc(N)n(-c5cc6c(nn5)-c5ccccc5CCC6)n4)cc3F)CC2C1 (centres unmarked) [Compound 72, 1-(6,7-dihydro-5H-benzo[6,7]cyclohepta[1,2-c]pyridazin-3-yl)-N^3-(3-fluoro-4-(5-propyl-octahydropyrrolo[3,4-c]pyrrolyl)phenyl)-1H-1,2,4-triazole-3,5-diamine] | < 1000
3 | CCN(CC)C1CCN(c2ccc(Nc3nc(N)n(C4=Nc5ccccc5Sc5ccccc54)n3)cc2F)CC1 [Compound 51, 1-((Z)-dibenzo[b,f][1,4]thiazepin-11-yl)-N^3-(3-fluoro-4-(4-diethylaminopiperidin-1-yl)phenyl)-1H-1,2,4-triazole-3,5-diamine] | 1000 to 10000
4 | Nc1ccc(-c2ccc(Nc3nc(N)n(-c4cc5c(nn4)-c4ccccc4CCC5)n3)cn2)cn1 [Compound 94, 1-(6,7-dihydro-5H-benzo[6,7]cyclohepta[1,2-c]pyridazin-3-yl)-N^3-(6-(6-aminopyridin-3-yl)pyridine-3-yl)-1H-1,2,4-triazole-3,5-diamine] | > 20000

Further lines, results first:

Row | IC50 [nM] | Structure (SMILES)
5 | < 1000 | CN(C1CCCC1)C1CCN(c2ccc(Nc3nc(N)n(-c4cc5c(nn4)-c4ccccc4CCC5)n3)cc2F)CC1 [Compound 82, 1-(6,7-dihydro-5H-benzo[6,7]cyclohepta[1,2-c]pyridazin-3-yl)-N^3-(3-fluoro-4-(4-(N-methyl-cyclopentylamino)-piperidinyl)phenyl)-1H-1,2,4-triazole-3,5-diamine]
6 | < 1000 | CCN(CC)C1CCN(c2ccc(Nc3nc(N)n(-c4cc5c(nn4)-c4ccccc4CCC5)n3)cc2F)CC1 [Compound 36, 1-(6,7-dihydro-5H-benzo[6,7]cyclohepta[1,2-c]pyridazin-3-yl)-N^3-(3-fluoro-4-(4-(diethylamino)piperidin-1-yl)phenyl)-1H-1,2,4-triazole-3,5-diamine]
7 | 1000 to 10000 | Nc1nc(Nc2ccc3c(c2)CCCCO3)nn1-c1cc2c(nn1)-c1ccccc1CCC2 [Compound 89, 1-(6,7-dihydro-5H-benzo[6,7]cyclohepta[1,2-c]pyridazin-3-yl)-N^3-(2,3,4,5-tetrahydrobenzo[b]oxepin-7-yl)-1H-1,2,4-triazole-3,5-diamine]

Same assay, conditions: Hela cells, phospho-Akt chemiluminescence normalized to relative cell number; compounds of formula (Ib), Table 2; read-out: IC50

Row | IC50 [nM] | Structure (SMILES)
8 | < 1000 | CC1CN(c2ccc(Nc3nc(N)nn3-c3cc4c(nn3)-c3ccccc3CCC4)cc2)CC(C)N1 (centres unmarked) [Compound 160, 1-(6,7-dihydro-5H-benzo[6,7]cyclohepta[1,2-c]pyridazin-3-yl)-N^5-(4-(3,5-dimethylpiperazin-1-yl)phenyl)-1H-1,2,4-triazole-3,5-diamine]
9 | > 20000 | Nc1nc(Nc2cnc3c(c2)CC2(CCC3)OCCO2)n(-c2cc3c(nn2)-c2ccccc2CCC3)n1 [Compound 248, 1-(6,7-dihydro-5H-benzo[6,7]cyclohepta[1,2-c]pyridazin-3-yl)-N^5-(5,7,8,9-tetrahydrospiro[cyclohepta[b]pyridine-6,2′[1,3]dioxolane]-3-yl)-1H-1,2,4-triazole-3,5-diamine]
10 | < 1000 | Nc1nc(Nc2ccc(CN3CCC(N4CCCC4)CC3)cc2)n(-c2cc3c(nn2)-c2ccccc2CCC3)n1 [Compound 165, 1-(6,7-dihydro-5H-benzo[6,7]cyclohepta[1,2-c]pyridazin-3-yl)-N^5-(4-((4-pyrrolidin-1-ylpiperidinyl)methyl)phenyl)-1H-1,2,4-triazole-3,5-diamine]

Same assay, conditions: inhibition of Axl activity; Table 1, compounds of formula (Ia); read-out: IC50

Row | Structure (SMILES) | IC50 [nM]
11 | CC(C)N1CCN(CC=Cc2ccc(Nc3nc(N)n(-c4cc5c(nn4)-c4ccccc4CCC5)n3)cc2)CC1 [Compound 205, 1-(6,7-dihydro-5H-benzo[6,7]cyclohepta[1,2-c]pyridazin-3-yl)-N^3-(4-(4-isopropylpiperazin-1-ylprop-1-enyl)phenyl)-1H-1,2,4-triazole-3,5-diamine] | < 1000
12 | Nc1nc(Nc2ccc(C=CCN3CCCCC3)cc2)nn1-c1cc2c(nn1)-c1ccccc1CCC2 [Compound 198, 1-(6,7-dihydro-5H-benzo[6,7]cyclohepta[1,2-c]pyridazin-3-yl)-N^3-(4-(piperidin-1-ylprop-1-enyl)phenyl)-1H-1,2,4-triazole-3,5-diamine] | < 1000
13 | Nc1nc(Nc2ccc3c(c2)CCC(NCC(=O)O)CC3)nn1-c1cc2c(nn1)-c1ccccc1CCC2 (centres unmarked) [Compound 237, 1-(6,7-dihydro-5H-benzo[6,7]cyclohepta[1,2-c]pyridazin-3-yl)-N^3-(7-(carboxymethyl)amino-6,7,8,9-tetrahydro-5H-benzo[7]annulene-2-yl)-1H-1,2,4-triazole-3,5-diamine] | > 20000

Further lines, results first:

Row | IC50 [nM] | Structure (SMILES)
14 | 1000 to 10000 | Nc1nc(Nc2ccc(C(=O)N3CCC(N4CCCCC4)CC3)nc2)nn1-c1cc2c(nn1)-c1ccccc1CCC2 [Compound 149, 1-(6,7-dihydro-5H-benzo[6,7]cyclohepta[1,2-c]pyridazin-3-yl)-N^3-(6-((4-piperidin-1-ylpiperidin-1-yl)carbonyl)pyridin-3-yl)-1H-1,2,4-triazole-3,5-diamine]
15 | < 1000 | Nc1nc(Nc2ccc3c(c2)CCC(=O)CC3)nn1-c1cc2c(nn1)-c1ccccc1CCC2 [Compound 223, 1-(6,7-dihydro-5H-benzo[6,7]cyclohepta[1,2-c]pyridazin-3-yl)-N^3-(7-oxo-6,7,8,9-tetrahydro-5H-benzo[7]annulene-2-yl)-1H-1,2,4-triazole-3,5-diamine]
16 | 1000 to 10000 | Nc1nc(Nc2ccc(N3CCN(CC4CC4)CC3)nc2)nn1-c1cc2c(nn1)-c1ccccc1CCC2 [Compound 187, 1-(6,7-dihydro-5H-benzo[6,7]cyclohepta[1,2-c]pyridazin-3-yl)-N^3-(2-(4-cyclopropylmethylpiperazin-1-yl)pyridine-5-yl)-1H-1,2,4-triazole-3,5-diamine]
17 | < 1000 | Nc1nc(Nc2ccc3c(c2)CN(C2CCCC2)CC3)nn1-c1cc2c(nn1)-c1ccccc1CCC2 [Compound 153, 1-(6,7-dihydro-5H-benzo[6,7]cyclohepta[1,2-c]pyridazin-3-yl)-N^3-(2-cyclopentyl-1,2,3,4-tetrahydroisoquinolin-7-yl)-1H-1,2,4-triazole-3,5-diamine]
18 | < 1000 | Nc1nc(Nc2ccc(C=CCN3CCN(C4CCCC4)CC3)cc2)nn1-c1cc2c(nn1)-c1ccccc1CCC2 [Compound 206, 1-(6,7-dihydro-5H-benzo[6,7]cyclohepta[1,2-c]pyridazin-3-yl)-N^3-(4-(4-cyclopentylpiperazin-1-ylprop-1-enyl)phenyl)-1H-1,2,4-triazole-3,5-diamine]
19 | < 1000 | Nc1nc(Nc2ccc3c(c2)CNCC3)nn1-c1cc2c(nn1)-c1ccccc1CCC2 [Compound 213, 1-(6,7-dihydro-5H-benzo[6,7]cyclohepta[1,2-c]pyridazin-3-yl)-N^3-(1,2,3,4-tetrahydroisoquinolin-7-yl)-1H-1,2,4-triazole-3,5-diamine]
20 | < 1000 | CN1CCC(N2CCc3ccc(Nc4nc(N)n(-c5cc6c(nn5)-c5ccccc5CCC6)n4)cc3C2)CC1 [Compound 215, 1-(6,7-dihydro-5H-benzo[6,7]cyclohepta[1,2-c]pyridazin-3-yl)-N^3-(2-(1-methylpiperidin-4-yl)-1,2,3,4-tetrahydroisoquinolin-7-yl)-1H-1,2,4-triazole-3,5-diamine]

Reference: patent US7709482B2, “Polycyclic heteroaryl substituted triazoles useful as Axl inhibitors” (Rigel Pharmaceuticals, Inc., priority 2006, dated 2010)
